{"source": "patent US20260193647A1", "about": "“MIRNA-BASED CANCER THERAPY WITH A TUMOR-NAVIGATING PEPTIDE” (The Board of Trustees of the Universities of Illinois, priority 2022, published 2026)", "key": {"[1]": {"tested_on": "SJ-GBM2, CHLA-200, LN-229 and astrocytes", "test": "Intracellular entry by qPCR detection of antisense miR-20a", "type": "cell-based, human", "settings": "1, 10, 100 and 1,000 nM, 24 hr", "source_text": "(§1) Micro RNA enriched fraction was extracted using the miRNeasy Mini Kit (Qiagen, Catalog #217004) following the manufacturer's instructions. Stem loop real-time qPCR was used to analyze miRNA expression. We designed miR-20a stem loop RT primers and amplification primers according to a previously described method 79. cDNA was synthesized from extracted RNA using unique stem loop RT primers. The sequence of the stem loop primer for miR-20a was 5′-[…]-3′ (SEQ ID NO:7). Reverse transcriptase reactions contained the following reagents: 10 ng of RNA sample, 60 nM stem-loop RT primer, 1×RT buffer, 0.25 mM dNTP, and 4 U/μl reverse transcriptase. Reactions were performed by incubation at 16° C. for 30 min, 42° C. for 30 min and 85° C. for 5 min. Real-time PCR (7300 Real time PCR Systems, Applied Biosystems, CA) was performed using the specific forward primer for miR-20a (5′-[…]-3′ (SEQ ID NO:8)) and a universal reverse primer (5′-GTGCA GGGTC CGAGGT-3′ (SEQ ID NO:9)). The 20-μl PCR mixture included 1×SYBR Premix (Invitrogen), 2 μl of RT products and each forward and reverse primer at 10 nM. Reactions were performed by incubation in a 96-well plate at 95° C. for 30 sec, followed by 35 cycles of 95° C. for 30 sec and 60° C. for 30 sec. U6 was used as an internal control to normalize the level of target miRNAs. […]"}, "aGBM (LN-229) cells": {"tested_on": "aGBM (LN-229) cells", "test": "Annexin V/PI flow cytometric apoptosis assay, aGBM (LN-229)", "type": "cell-based, human", "settings": "10 nM, 24 h", "procedure": "(§2) Cells were seeded into 10-cm dishes and cultured overnight. Then, the cells were treated with 10 nM antisense miR-20a alone, p28 alone or AmiR20-p28 for 24 hr. Cells were washed with 1×PBS, detached with TrypleE (Invitrogen). and collected by centrifugation. Cells were washed and resuspended with 1× Annexin binding buffer (Life Technologies, catalog #V13242), and the cell density was maintained at 10^6 cells/ml. Subsequently, 5 μl of Annexin-V was added to 100 μl of the cell suspension, and the mixture was incubated for 15 min at room temperature. The cells were washed and incubated with 5 μl of PI for an additional 15 min on ice, washed and resuspended in 200 μl of buffer. Cells without treatment were used as controls. After washing, cells were subjected to flow cytometry (Gallios flow cytometer) and analyzed with Kaluza software to give the proportions of dead (top left quadrant), late apoptotic (top right quadrant), early apoptotic (bottom right quadrant) and viable (bottom left quadrant) cells."}, "miR-20a": {"tested_on": "miR-20a", "test": "Circulating miR-20a in sera of treated mice", "type": "in vivo", "settings": "early-phase treatment group, 1 mg/kg; vs tumor-free mice (P=0.78)", "source_text": "as §1"}, "SJ-GBM2 cells": {"tested_on": "SJ-GBM2 cells", "test": "Annexin V/PI flow cytometric apoptosis assay, SJ-GBM2", "type": "cell-based, human", "settings": "10 nM, 24 h", "procedure": "as §2"}, "CHLA-200 cells [2]": {"tested_on": "CHLA-200 cells", "test": "Annexin V/PI flow cytometric apoptosis assay, CHLA-200", "type": "cell-based, human", "settings": "10 nM, 24 h", "procedure": "as §2"}, "[3]": {"tested_on": "3D Human Blood Brain Barrier Model", "protocol": "Permeability experiments were carried out in a 3D Human Blood Brain Barrier Model kit (Alphabioregen, Catalog #EP010). The BBB kits were activated following the manufacturer's instructions. Briefly, the BBB model was thawed using BBB growth medium (#BBB-GM001) and incubated overnight with fresh BBB growth medium. The model was incubated with Endo-Neuro-Pharmaceuticals medium (#NMBBB001) for 3 days. AmiR20-p28 was prepared in assay buffer (Dulbecco's PBS containing CaCl2 and MgCl4, 100 mM HEPES, pH 7.0, 25 mM D-glucose). The permeability of AmiR20-p28 was measured in two directions: apical to basolateral (A-B) and basolateral to apical (B-A). The apical side represented the blood, and the basolateral side represented the brain tissue. For transport, the inserts from the BBB wells were transferred to another well containing prewarmed assay buffer. Depending on the direction, the medium in the donor compartment of the BBB model was replaced with AmiR20-p28. The plate was incubated for 30 min at 37° C. Samples were then collected from the donor and acceptor compartments and analyzed by real-time PCR. The concentrations of AmiR20-p28 in the compartments were calculated based on a standard curve developed with AmiR20-p28 at 1, 10, 100 and 1,000 nM and its relative Ct value obtained from real-time PCR. […]"}, "LN-229 cells": {"tested_on": "LN-229 cells", "test": "CCK-8 cell viability assay, LN-229", "type": "cell-based, human", "settings": "24 hr", "protocol": "(§3) Cell viability was evaluated by a CCK-8 assay (Dojindo, Japan). Cells were seeded at a density of 4,000 cells per well in 100 μl of growth medium in 96-well plates and grown overnight. Then, the cells were exposed to antisense miR-20a alone, p28 alone or negative control or AmiR20-p28 over a range of concentrations and incubated for 24 hr. According to the manufacturer's instructions, 10 μl of CCK-8 solution was added to each well, followed by incubation for 1 hr at 37° C. The absorbance at 450 nm was determined by a multiplate reader.\n(§4) Cell viability (%)=Abs(sample)−Abs(blank)/Abs(no treatment)−Abs(blank)×100"}, "SJ-GBM2 spheroids": {"tested_on": "SJ-GBM2 spheroids", "test": "SJ-GBM2 tumor spheroids: uptake and structure", "type": "cell-based, human", "procedure": "SJ-GBM2 cells, CHLA-200 cells and astrocytes (2×10^4 cells/well) were cultured on glass slides placed in 24-well plates. After overnight culture, the cells were washed with PBS and incubated with 20 μM Alexa Fluor 568-labeled p28 peptide in medium (5% FBS and without phenol red) for 2 hr at 37° C. Cells were fixed with 2% formalin for 10 min. After washing, slides were prepared and mounted with Vectashield with DAPI (Vector Laboratories, Catalog #94010). Slides were examined by an LSM 710 confocal laser scanning microscope (Zeiss). Images were processed using ZEN software (ZEISS ZEN Lite). As for a GSC marker, the slides were first incubated with Alexa Fluor 568-labeled AmiR20-p28 for 2 hr at 37° C. Cells were fixed with 2% formalin for 10 min. After washing, slides were incubated with blocking buffer for 1 hr at room temperature, followed by consecutive staining with anti-CD133 antibody (1:500, R&D Systems FAB11331G). Slides were washed and mounted with Vectashield containing DAPI. Slides were examined by the LSM 710 confocal laser scanning microscope.\nSJ-GBM2 spheroids were formed by self-aggregation of cells in the bottoms of non-adherent round bottom 96-well plates (Thermo Scientific, #174925 96U). Suspensions of 10,000 cells in 100 μl volumes of media were pipetted into individual wells and allowed to form cell-cell connections over the course of 3 days."}, "CHLA-200 cells [4]": {"tested_on": "CHLA-200 cells", "type": "cell-based, human", "settings": "24 hr; read-out: IC50 (cell viability)", "protocol": "as §3, §4"}}, "data": [{"substance": "AmiR20-p28: BBB-permeable tumor-navigating CPP p28 (Cys-p28) covalently linked to 2′ O-methyl antisense miR-20a (5′-maleimide)", "values": [{"measurement": "penetration into pGBM and aGBM cells (qPCR of antisense miR-20a)", "setting": "[1]", "result": "preferential and dose-dependent penetration"}, {"measurement": "apoptotic cells after treatment", "setting": "aGBM (LN-229) cells", "result": 6.7, "unit": "%"}, {"measurement": "serum miR-20a level", "setting": "miR-20a", "result": "not significantly different from the basal level in the tumor-free mice"}, {"measurement": "increase in apoptotic cells by", "setting": "SJ-GBM2 cells", "result": 16, "unit": "%"}, {"measurement": "apoptotic cells increased by", "setting": "CHLA-200 cells [2]", "result": 14, "unit": "%"}, {"measurement": "efflux Papp (B-A)", "setting": "[3]", "result": 0.95, "unit": "×10⁻⁶ cm/s"}, {"measurement": "influx Papp (A-B)", "setting": "[3]", "result": 4.39, "unit": "×10⁻⁶ cm/s"}, {"measurement": "IC50", "setting": "LN-229 cells", "result": 170, "unit": "nM"}, {"measurement": "effect on cell viability", "setting": "LN-229 cells; compared to pGBM", "result": "less extensive"}, {"measurement": "structure of the SJ-GBM2 spheroids", "setting": "SJ-GBM2 spheroids; 10 nM, 24 and 48 h", "result": "started to disintegrate at 24 h"}, {"measurement": "uptake in tumor spheroids", "setting": "SJ-GBM2 spheroids; 20 μM Alexa Fluor-labeled, 2 hr, 37° C.", "result": "penetrated the tumor spheroids"}, {"measurement": "IC50", "setting": "CHLA-200 cells [4]", "result": 11, "unit": "nM"}]}]}
